Measurements from US20120225471A1, “Method for producing a composite material” (priority 2011, published 2012).

System: zygomycetes, ascomycetes and bacteria/yeast
Assay: Cotton burr substrate disinfection, all contaminant types
Type: cell-based
Details: 2.5 mL Tween 80 added to each PEO concentration; Fisher's Exact Test p=0.318, 0.499, 0.448 (zygomycetes, ascomycetes, bacteria/yeast)
Experimental: Eight plant essential oils (cinnamon, clove, lemongrass, oregano, savory, spearmint, tea tree and thyme) were prepared with tap water in 600 ml Pyrex glass beakers in the following volumetric concentrations: 0.1, 0.5, 1.0, 1.5, 2.0% [v:v]. Twenty-four grams of a propriety cotton burr substrate was placed in a 25×25 cm square of tule mesh tied with a rubber band to make one bundle. Each concentration was tested in replicates of 5, by submersing each bundle in a beaker containing one of the plant essential (PEO) concentrations for three hours. Each beaker was placed under constant magnetic stirring at 300 rpm, to maintain the oil emulsion during the exposure period.
The bundle was then opened within a laminar flow hood and three pieces of cotton burrs were transferred to five Petri plates each of Potato Dextrose Agar (PDA) and Tryptic Soy Agar (TSA).
The submersion process was repeated for each PEO at the five concentrations over a period of three weeks. The number of ascomycete, zygomycete and bacteria/yeast colonies were recorded for each plate every 3 days for 15 days. […]
Example 2 followed the same procedure as Example 1, but examined the efficacy of the five selected oil concentrations at the following exposure intervals: 30, 60, and 120 minutes. This analysis determined the minimum exposure time required for microbial inhibition on cotton burr substrate. […]

## CCCCCCCC/C=C\CCCCCCCC(=O)OCCOCC(OCCO)C1OCC(OCCO)C1OCCO (stereo not shown) [Tween 80]
  frequency of contamination on substrate treated with the surfactant versus non-treated substrate: no significant difference
